Source: PMC5557574 (Critical Care, 2017)
Where two headings read alike, the source gives them in different places. Positions of bridges follow the written chain, without caps; N, C: chain ends. Non-standard residues stand in square brackets, D forms with d. Residues, ends and D or L forms follow the SMILES beside them. Orn(iPr) = CC(C)NCCC[C@H](N)C(=O)O; Aad = N[C@@H](CCCC(=O)O)C(=O)O

Assays:
patients = details: 30 patients, infusion rates of 3.75 ng/kg/minute and higher; ref Ferring Pharmaceuticals A/S, unpublished data; cited from earlier work
[1] = system: patients in early septic shock; test: Safety: treatment-emergent adverse events in the phase IIa trial; format: in vivo, human
Method: Secondary endpoints included pharmacodynamics, pharmacokinetics, safety (vital signs, central venous pressure, central venous oxygen saturation, electrocardiographic and cardiac function, respiratory function, clinical chemistry, hematology, hemostasis, and urinalysis), organ dysfunction, an indirect measure of vascular leakage (i.e., fluid balance), and morbidity. Treatment-emergent adverse events (occurrence from start of study drug to 48 h after infusion was stopped) were collated and evaluated. Morbidity and organ dysfunction were evaluated by time course of Sequential Organ Failure Assessment (SOFA) scores; days alive and free of organ dysfunction (using SOFA); proportion of patients off all vasopressors; days alive and out of intensive care unit (ICU); days alive and free of vasopressors; corticosteroids for sepsis treatment, dialysis, or mechanical ventilation at days 7, 14, and 28; ICU and hospital (up to day 28) lengths of stay; and plasma C-reactive protein (CRP), tumor necrosis factor (TNF)-α, interleukin (IL)-6, IL-10, and IL-1ra levels.

healthy subjects = system: healthy subjects; set-up: method as in Ferring Pharmaceuticals A/S, unpublished data; details: 30 healthy subjects, infusion rates up to 3.0 ng/kg/minute for 6 h; ref Ferring Pharmaceuticals A/S, unpublished data; cited from earlier work
[2] = Pharmacokinetics in septic shock patients, two-compartment population pharmacokinetic model; format: in vivo, human; details: for Initial elimination half-life / Time to steady state / clearance / Vd / half-life: mean (SD), SD; for clearance / Vd / half-life: human, in vivo, intravenous; for clearance: read-out: Clearance (total systemic) (converted); for Vd: read-out: Steady state volume; for half-life: read-out: Terminal elimination half-life (converted)
Method: Because the study drug infusion was administered according to need, the pharmacokinetic parameters steady-state concentration, total systemic clearance, distribution volume at steady state, and half-life were calculated by modeling using a two-compartment population pharmacokinetic model with random subject effects on clearance and distribution volume using WinNonlin®Pro (Pharsight Corp., Cary, NC, USA). Actual blood sampling time points were used for the calculations.
Data are generated by modelling the concentration data available from all subjects. Mean (SD)

[3] = cited from earlier work
[4] = set-up: method as in Ferring Pharmaceuticals, unpublished data; details: healthy subjects; ref Ferring Pharmaceuticals, unpublished data; cited from earlier work
[5] = Selepressin 2.5 ng/kg/minute (n = 19), possibly or probably related
[6] = Selepressin 3.75 ng/kg/minute (n = 2), possibly or probably related

CC[C@H](C)[C@@H]1NC(=O)[C@H](Cc2ccccc2)NC(=O)[C@@H](N)CSSC[C@@H](C(=O)N2CCC[C@H]2C(=O)N[C@@H](CCCNC(C)C)C(=O)NCC(N)=O)NC(=O)[C@H](CC(N)=O)NC(=O)[C@H](CCCC(N)=O)NC1=O [selepressin] (H-CFI[Aad](NH2)NCP[Orn(iPr)]G-NH2; disulfide 1-6)
Safety (patients): did not raise any safety concerns
Any severe TEAE: E (events) ([1]; 1.25 ng/kg.min N=10): 8
Any severe TEAE: N (%) ([1]; 1.25 ng/kg.min N=10): 3 (30)
Severe TEAE Acute respiratory distress syndrome: E (events) ([1]; 1.25 ng/kg.min N=10): 1
Severe TEAE Acute respiratory distress syndrome: N (%) ([1]; 1.25 ng/kg.min N=10): 1 (10)
Severe TEAE Ascites: E (events) ([1]; 1.25 ng/kg.min N=10): 1
Severe TEAE Ascites: N (%) ([1]; 1.25 ng/kg.min N=10): 1 (10)
Severe TEAE Cerebral hemorrhage: E (events) ([1]; 1.25 ng/kg.min N=10): 1
Severe TEAE Cerebral hemorrhage: N (%) ([1]; 1.25 ng/kg.min N=10): 1 (10)
Severe TEAE Disseminated intravascular coagulation: E (events) ([1]; 1.25 ng/kg.min N=10): 1
Severe TEAE Disseminated intravascular coagulation: N (%) ([1]; 1.25 ng/kg.min N=10): 1 (10)
Severe TEAE Hepatic failure: E (events) ([1]; 1.25 ng/kg.min N=10): 1
Severe TEAE Hepatic failure: N (%) ([1]; 1.25 ng/kg.min N=10): 1 (10)
Severe TEAE Hyperkalemia: E (events) ([1]; 1.25 ng/kg.min N=10): 1
Severe TEAE Hyperkalemia: N (%) ([1]; 1.25 ng/kg.min N=10): 1 (10)
Severe TEAE Mechanical ventilation complication: E (events) ([1]; 1.25 ng/kg.min N=10): 1
Severe TEAE Mechanical ventilation complication: N (%) ([1]; 1.25 ng/kg.min N=10): 1 (10)
Severe TEAE Oliguria: E (events) ([1]; 1.25 ng/kg.min N=10): 1
Severe TEAE Oliguria: N (%) ([1]; 1.25 ng/kg.min N=10): 1 (10)
Any severe TEAE: E (events) ([1]; 2.5 ng/kg.min N=19): 6
Any severe TEAE: N (%) ([1]; 2.5 ng/kg.min N=19): 4 (21)
Severe TEAE Myocarditis: E (events) ([1]; 2.5 ng/kg.min N=19): 1
Severe TEAE Myocarditis: N (%) ([1]; 2.5 ng/kg.min N=19): 1 (5)
Severe TEAE Peripheral ischemia: E (events) ([1]; 2.5 ng/kg.min N=19): 1
Severe TEAE Peripheral ischemia: N (%) ([1]; 2.5 ng/kg.min N=19): 1 (5)
Severe TEAE Pneumothorax: E (events) ([1]; 2.5 ng/kg.min N=19): 1
Severe TEAE Pneumothorax: N (%) ([1]; 2.5 ng/kg.min N=19): 1 (5)
Severe TEAE Respiratory distress: E (events) ([1]; 2.5 ng/kg.min N=19): 2
Severe TEAE Respiratory distress: N (%) ([1]; 2.5 ng/kg.min N=19): 2 (11)
Severe TEAE Urinary bladder hemorrhage: E (events) ([1]; 2.5 ng/kg.min N=19): 1
Severe TEAE Urinary bladder hemorrhage: N (%) ([1]; 2.5 ng/kg.min N=19): 1 (5)
Adverse drug reactions judged as serious ([1]; 2.5 ng/kg/minute group, one patient): myocarditis and peripheral ischemia
Any severe TEAE: E (events) ([1]; 3.75 ng/kg.min N=2): 2
Any severe TEAE: N (%) ([1]; 3.75 ng/kg.min N=2): 2 (100)
Severe TEAE Cardio-respiratory arrest: E (events) ([1]; 3.75 ng/kg.min N=2): 1
Severe TEAE Cardio-respiratory arrest: N (%) ([1]; 3.75 ng/kg.min N=2): 1 (50)
Severe TEAE Myocardial ischemia: E (events) ([1]; 3.75 ng/kg.min N=2): 1
Severe TEAE Myocardial ischemia: N (%) ([1]; 3.75 ng/kg.min N=2): 1 (50)
Adverse drug reactions judged as serious ([1]; 3.75 ng/kg/minute group): myocardial ischemia
Cyanosis, treatment-related adverse drug reaction: No. of subjects (%) [1, 5]: 1 (5)
Cyanosis, treatment-related adverse drug reaction: events [1, 5]: 1
Hypertension, treatment-related adverse drug reaction: No. of subjects (%) [1, 5]: 2 (11)
Hypertension, treatment-related adverse drug reaction: events [1, 5]: 2
Myocarditis, treatment-related adverse drug reaction: No. of subjects (%) [1, 5]: 1 (5)
Myocarditis, treatment-related adverse drug reaction: events [1, 5]: 1
Peripheral ischemia, treatment-related adverse drug reaction: No. of subjects (%) [1, 5]: 1 (5)
Peripheral ischemia, treatment-related adverse drug reaction: events [1, 5]: 1
Myocardial ischemia, treatment-related adverse drug reaction: No. of subjects (%) [1, 6]: 1 (50)
Myocardial ischemia, treatment-related adverse drug reaction: events [1, 6]: 1
Tolerability ([1]; selepressin 2.5 ng/kg/minute, septic shock patients): well tolerated
Tolerability (treatment-emergent adverse events vs placebo) ([1]; selepressin dose groups, septic shock patients): well tolerated
Deaths related to ischemic event(s) attributable to selepressin ([1]; septic shock patients, all dose groups): no deaths
Safety and tolerability (healthy subjects): safe and well tolerated
Initial distribution/elimination phase half-life [2]: approximately 10 minutes
Initial elimination half-life ([2]; 1.25 ng/kg.min, N=10, modelled): 0.18 (0.09) h
Time to steady state ([2]; 1.25 ng/kg.min, N=10, modelled): 7.6 (2.8) h
Initial elimination half-life ([2]; 2.5 ng/kg.min, N=17, modelled): 0.17 (0.06) h
Time to steady state ([2]; 2.5 ng/kg.min, N=17, modelled): 7.0 (2.3) h
Terminal half-life ([2]; both dose groups): 2.5 h
Time to steady-state concentration ([2]; both infusion rates (1.25 and 2.5)): approximately 7 h
clearance ([2]; 1.25 ng/kg.min, N=10, modelled): 167 mL/min
Vd ([2]; 1.25 ng/kg.min, N=10, modelled): 25.5 L
half-life ([2]; 1.25 ng/kg.min, N=10, modelled): 2.5 h
clearance ([2]; 2.5 ng/kg.min, N=17, modelled): 218 mL/min
Vd ([2]; 2.5 ng/kg.min, N=17, modelled): 31.2 L
half-life ([2]; 2.5 ng/kg.min, N=17, modelled): 2.7 h
Half-life (qualitative, compared with vasopressin and terlipressin) [3]: intermediate
Terminal half-life [4]: 1.5 h

terlipressin [reference compound]
Half-life (qualitative) ([3]; in vivo): long half-life
